Measurements published in US20240246964A1 (Arbutus Biopharma Corporation, priority 2021, published 2024).

Legend:
[1] = molecular target: PD-L1 His protein / PD-1 Fc protein (Homo sapiens (Human), UniProt Q9NZQ7); test: HTRF Assay (PD-1/PD-L1 interaction); assay type: binding; details: PD-L1 His 6 nM, PD-1 Fc 6 nM
human PD-L1 = human PD-L1 (Homo sapiens (Human), UniProt Q9NZQ7); test: T cell activation luciferase reporter cell culture system (T Cell Activation Assay); assay type: cell-based; details: luciferase reporter assay; PD-L1 aAPC/CHO-K1 cells with PD-1 effector Jurkat T cells
Sequence of human PD-L1 (Q9NZQ7 19-290): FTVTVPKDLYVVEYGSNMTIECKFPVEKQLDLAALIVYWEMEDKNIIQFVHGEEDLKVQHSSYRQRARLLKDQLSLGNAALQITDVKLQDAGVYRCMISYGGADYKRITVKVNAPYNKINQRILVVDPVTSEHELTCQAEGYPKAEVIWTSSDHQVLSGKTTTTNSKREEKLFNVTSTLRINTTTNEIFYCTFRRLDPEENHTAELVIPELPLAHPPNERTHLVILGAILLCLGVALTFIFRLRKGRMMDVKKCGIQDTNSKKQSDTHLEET

Sequence of PD-L1 His protein / PD-1 Fc protein (Q9NZQ7 19-238): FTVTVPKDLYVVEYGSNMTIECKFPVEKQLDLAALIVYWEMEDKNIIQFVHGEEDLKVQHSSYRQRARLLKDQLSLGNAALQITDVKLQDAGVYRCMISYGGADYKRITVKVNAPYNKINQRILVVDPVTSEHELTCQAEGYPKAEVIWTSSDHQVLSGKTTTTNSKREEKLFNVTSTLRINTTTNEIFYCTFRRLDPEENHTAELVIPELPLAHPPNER

SMILES: COc1cc(-c2nccc(-c3cccc(-c4ccc(CNC56CC(CO)(C5)C6)c(OC)n4)c3Cl)c2Cl)ccc1CNC12CC(CO)(C1)C2 [Example 591, (3-(((6-(2-chloro-3-(3-chloro-2-(4-(((3-(hydroxymethyl)bicyclo[1.1.1]pentan-1-yl)amino)methyl)-3-methoxyphenyl)pyridin-4-yl)phenyl)-2-methoxypyridin-3-yl)methyl)amino)bicyclo[1.1.1]pentan-1-yl)methanol]
- IC50 [1]: 24.5 nM
- EC50 (human PD-L1): 469 nM

SMILES: COc1nc(-c2cccc(-c3nccc(-c4ccc(CNC5CCN(C(C)=O)CC5)c(OC)n4)c3Cl)c2Cl)ccc1CN1CC2(CNC(=O)C2)C1 [Compound 682, 2-((6-(3-(5-(((1-Acetylpiperidin-4-yl)amino)methyl)-3′-chloro-6-methoxy-[2,4′-bipyridin]-2′-yl)-2-chlorophenyl)-2-methoxypyridin-3-yl)methyl)-2,6-diazaspiro[3.4]octan-7-one]
- IC50 [1]: 0.17 nM
- EC50 (human PD-L1): 24.6 nM

SMILES: COc1nc(-c2cccc(-c3ccnc(-c4ccc5c(CNC[C@@H]6CCO6)cn(C)c5c4)c3Cl)c2Cl)ccc1CNC[C@@H]1CCC(=O)N1 [Compound 34, (S)-5-((((6-(2-chloro-3-(3-chloro-2-(1-methyl-3-(((((S)-oxetan-2-yl)methyl)amino)methyl)-1H-indol-6-yl)pyridin-4-yl)phenyl)-2-methoxypyridin-3-yl)methyl)amino)methyl)pyrrolidin-2-one]
- IC50 [1]: 72.1 nM
- EC50 (human PD-L1): 122 nM

SMILES: COc1nc(-c2cccc(-c3ccnc(-c4cc(OC)c5nc(CNCC(C)(C)O)nn5c4)c3Cl)c2Cl)ccc1CNC1CCN(C(C)=O)CC1 [Example 714, 1-(4-(((6-(2-chloro-3-(3-chloro-2-(2-(((2-hydroxy-2-methylpropyl)amino)methyl)-8-methoxy-[1,2,4]triazolo[1,5-a]pyridin-6-yl)pyridin-4-yl)phenyl)-2-methoxypyridin-3-yl)methyl)amino)piperidin-1-yl)ethan-1-one]
- IC50 [1]: 0.54 nM
- EC50 (human PD-L1): 249 nM

SMILES: COc1nc(-c2cccc(-c3ccnc(-c4ccc5c(c4)CNC5)c3Cl)c2Cl)ccc1CNC[C@H](C)O [Compound 161, (S)-1-(((6-(2-chloro-3-(3-chloro-2-(isoindolin-5-yl)pyridine-4-yl)phenyl)-2-methoxypyridin-3-yl)methyl)amino)propan-2-ol]
- IC50 [1]: 0.73 nM
- EC50 (human PD-L1): 387 nM

SMILES: COc1nc(-c2ccnc(-c3cccc4c3CC[C@@H]4Oc3nc(OC)c(CNC4CCN(C(C)=O)CC4)cc3C(F)(F)F)c2Cl)ccc1CN1CC2(CNC(=O)C2)C1 [Example 551, (S)-2-((2′-(1-((5-(((1-Acetylpiperidin-4-yl)amino)methyl)-6-methoxy-3-(trifluoromethyl)pyridin-2-yl)oxy)-2,3-dihydro-1H-inden-4-yl)-3′-chloro-6-methoxy-[2,4′-bipyridin]-5-yl)methyl)-2,6-diazaspiro[3.4]octan-7-one]
- IC50 [1]: 0.32 nM
- EC50 (human PD-L1): 182 nM

SMILES: COc1cc(-c2nccc(-c3cccc(-c4ccc(CNC[C@@H]5CCC(=O)N5)c(OC)n4)c3Cl)c2Cl)ccc1CNC1(C(=O)OC(C)C)CC1 [Compound 135, isopropyl (S)-1-((4-(3-chloro-4-(2-chloro-3-(6-methoxy-5-((((5-oxopyrrolidin-2-yl)methyl)amino)methyl)pyridin-2-yl)phenyl)pyridin-2-yl)-2-methoxybenzyl)amino)cyclopropane-1-carboxylate]
- IC50 [1]: 31.2 nM
- EC50 (human PD-L1): ≥ 10000 nM

SMILES: COc1nc(-c2cccc(-c3ccnc(-c4ccc5c(CNCC(C)(C)O)cn(C)c5c4)c3Cl)c2Cl)ccc1CNC[C@@H]1CCC(=O)N1 [Compound 36, (S)-5-((((6-(2-chloro-3-(3-chloro-2-(3-(((2-hydroxy-2-methylpropyl)amino)methyl)-1-methyl-1H-indol-6-yl)pyridin-4-yl)phenyl)-2-methoxypyridin-3-yl)methyl)amino)methyl)pyrrolidin-2-one]
- IC50 [1]: 3.4 nM
- EC50 (human PD-L1): 82.1 nM

SMILES: COc1nc(-c2cccc(-c3ccnc(-c4ccc5c(CN(C)C6CCN(C(C)=O)CC6)nn(C)c5c4)c3Cl)c2Cl)ccc1CNC[C@@H]1CCC(=O)N1 [Compound 168, (S)-5-((((6-(3-(2-(3-(((1-acetylpiperidin-4-yl)(methyl)amino)methyl)-1-methyl-1H-indazol-6-yl)-3-chloropyridin-4-yl)-2-chlorophenyl)-2-methoxypyridin-3-yl)methyl)amino)methyl)pyridine1332ne-2-one]
- IC50 [1]: 3.6 nM
- EC50 (human PD-L1): 12.5 nM

SMILES: COc1nc(-c2cccc(-c3ccnc(-c4cc5c(=O)n(C)c(CNC(C)C)nn5c4)c3Cl)c2Cl)ccc1CNC[C@@H]1CCC(=O)N1 [Compound 111, (S)-6-(3-chloro-4-(2-chloro-3-(6-methoxy-5-((((5-oxopyrrolidin-2-yl)methyl)amino)methyl)pyridin-2-yl)phenyl)pyridin-2-yl)-2-((isopropylamino)methyl)-3-methylpyrrolo[2,1-f][1,2,4]triazin-4(3H)-one]
- IC50 [1]: 2.2 nM
- EC50 (human PD-L1): 263 nM

SMILES: COc1cc(-c2nccc(-c3ccnc(-c4ccc(CNC[C@@H]5CCC(=O)N5)c(OC)c4)c3Cl)c2Cl)ccc1CNC[C@@H]1CCC(=O)N1 [Compound 4, (5S,5′S)-5,5′-(((((3,3′-dichloro-[4,4′-bipyridine]-2,2′-diyl)bis(2-methoxy-4,1-phenylene))bis(methylene))bis(azanediyl))bis(methylene))bis(pyrrolidin-2-one)]
- IC50 [1]: 8.3 nM
- EC50 (human PD-L1): 96.3 nM

SMILES: COc1nc(-c2cccc(-c3ccnc(-c4cc(OC)c5nc(CNCC(F)F)cn5c4)c3Cl)c2Cl)ccc1CNC1CCN(C(C)=O)CC1 [Example 478, 1-(4-(((6-(2-Chloro-3-(3-chloro-2-(2-(((2,2-difluoroethyl)amino)methyl)-8-methoxyimidazo[1,2-a]pyridin-6-yl)pyridin-4-yl)phenyl)-2-methoxypyridin-3-yl)methyl)amino)piperidin-1-yl)ethan-1-one]
- IC50 [1]: 43.9 nM
- EC50 (human PD-L1): ≥ 10000 nM

SMILES: COc1nc(-c2cccc(-c3ccnc(-c4ccc(CN5CC6(CNC(=O)C6)C5)c(OC(F)F)c4)c3Cl)c2Cl)ccc1CNC1CCN(C(C)=O)CC1 [Example 684, 2-(4-(4-(3-(5-(((1-Acetylpiperidin-4-yl)amino)methyl)-6-methoxypyridin-2-yl)-2-chlorophenyl)-3-chloropyridin-2-yl)-2-(difluoromethoxy)benzyl)-2,6-diazaspiro[3.4]octan-7-one]
- IC50 [1]: 1.8 nM
- EC50 (human PD-L1): 34.9 nM

SMILES: COc1cc(-c2nccc(-c3cccc(-c4ccc(CN[C@H]5C[C@](C)(O)C5)c(OC)n4)c3Cl)c2Cl)ccc1CN1CC2(CNC(=O)C2)C1 [Example 517, 2-(4-(3-Chloro-4-(2-chloro-3-(5-((((1r,3r)-3-hydroxy-3-methylcyclobutyl)-amino)methyl)-6-methoxypyridin-2-yl)phenyl)pyridin-2-yl)-2-methoxybenzyl)-2,6-diazaspiro[3.4]octan-7-one]
- IC50 [1]: 1.55 nM
- EC50 (human PD-L1): 17 nM

SMILES: COc1cc(-c2nccc(-c3cccc(-c4ccc(CN5CC6(CNC(=O)C6)C5)c(OC)n4)c3Cl)c2Cl)ccc1CN1CC2(CNC2)C1 [Example 494, 2-((6-(3-(2-(4-((2,6-Diazaspiro[3.3]heptan-2-yl)methyl)-3-methoxyphenyl)-3-chloropyridin-4-yl)-2-chlorophenyl)-2-methoxypyridin-3-yl)methyl)-2,6-diazaspiro[3.4]-octan-7-one]
- IC50 [1]: 5.21 nM
- EC50 (human PD-L1): 61.7 nM

SMILES: COc1nc(-c2cccc(-c3nccc(-c4ccc(CN5CCC(O)CC5)c(OC)n4)c3Cl)c2Cl)ccc1CNC1CCN(C(C)=O)CC1 [Example 761, 1-(4-(((6-(2-Chloro-3-(3′-chloro-5-((4-hydroxypiperidin-1-yl)methyl)-6-methoxy-[2,4′-bipyridin]-2′-yl)phenyl)-2-methoxypyridin-3-yl)methyl)amino)piperidin-1-yl)ethan-1-one]
- IC50 [1]: 0.87 nM
- EC50 (human PD-L1): 16.9 nM

SMILES: COc1cc(-c2nccc(-c3cccc(-c4cc(F)c(CNC[C@@H]5CCC(=O)N5)c(OC)n4)c3Cl)c2Cl)cc2c1CN(C[C@H](C)O)CC2 [Compound 176, (S)-5-((((6-(2-chloro-3-(3-chloro-2-(2-((S)-2-hydroxypropyl)-8-methoxy-1,2,3,4-tetrahydroisoquinolin-6-yl)pyridine-4-yl)phenyl)-4-fluoro-2-methoxypyridin-3-yl)methyl)amino)methyl)pyridine1334ne-2-one]
- IC50 [1]: 1.05 nM
- EC50 (human PD-L1): 9.99 nM

SMILES: COc1cc(-c2nccc(-c3cccc(-c4cnc(CNC5CCN(C(C)=O)CC5)c(OC)n4)c3Cl)c2Cl)ccc1CNC1CCN(C(C)=O)CC1 [Example 311, 1-(4-(((5-(3-(2-(4-(((1-Acetylpiperidin-4-yl)amino)methyl)-3-methoxyphenyl)-3-chloropyridin-4-yl)-2-chlorophenyl)-3-methoxypyrazin-2-yl)methyl)amino)piperidin-1-yl)ethan-1-one]
- IC50 [1]: 0.907 nM
- EC50 (human PD-L1): 152 nM

SMILES: COc1cc(-c2nccc(-c3cccc(-c4ccc(CNC[C@@H]5CCC(=O)N5)c(OC)n4)c3Cl)c2Cl)cc(F)c1CNC1CCN(C(C)=O)CC1 [Compound 148, (S)-5-((((6-(3-(2-(4-(((1-acetylpiperidin-4-yl)amino)methyl)-3-fluoro-5-methoxyphenyl)-3-chloropyridin-4-yl)-2-chlorophenyl)-2-methoxypyridin-3-yl)methyl)amino)methyl)pyrrolidin-2-one]
- IC50 [1]: 1.11 nM
- EC50 (human PD-L1): 19.5 nM

SMILES: COc1nc(-c2ccnc(-c3cccc(NC(=O)c4cn(C)c(=O)n(C)c4=O)c3Cl)c2Cl)ccc1CNC1CCN(C(C)=O)CC1 [Compound 721, N-(3-(5-(((1-Acetylpiperidin-4-yl)amino)methyl)-3′-chloro-6-methoxy-[2,4′-bipyridin]-2′-yl)-2-chlorophenyl)-1,3-dimethyl-2,4-dioxo-1,2,3,4-tetrahydropyrimidine-5-carboxamide]
- IC50 [1]: 0.7 nM
- EC50 (human PD-L1): 1320 nM
